Source: the kinase profiling compilation of Christmann-Franck et al. (2016)

Key:
Test in all cases: KINOMEscan competition binding
Settings in all cases: compound 10.0 µM
[1] = target: DAPK2 (human) (UniProt Q9UIK4)
[2] = target: ERBB3 (human) (UniProt P21860)
[3] = target: TBK1 (human) (UniProt Q9UHD2)
[4] = target: MYO3B (human) (UniProt Q8WXR4)
[5] = target: PRPF4B (human) (UniProt Q13523)
[6] = target: NUAK2 (human) (UniProt Q9H093)
[7] = target: PKN3 (M.tuberculosis) (UniProt Q6P5Z2)
[8] = target: TAOK3 (human) (UniProt Q9H2K8)
[9] = target: GRK7 (human) (UniProt Q8WTQ7)
[10] = target: CSNK1A1 (human) (UniProt P48729)
Chain of CSNK1A1 (human) (P48729 whole entry, looked up): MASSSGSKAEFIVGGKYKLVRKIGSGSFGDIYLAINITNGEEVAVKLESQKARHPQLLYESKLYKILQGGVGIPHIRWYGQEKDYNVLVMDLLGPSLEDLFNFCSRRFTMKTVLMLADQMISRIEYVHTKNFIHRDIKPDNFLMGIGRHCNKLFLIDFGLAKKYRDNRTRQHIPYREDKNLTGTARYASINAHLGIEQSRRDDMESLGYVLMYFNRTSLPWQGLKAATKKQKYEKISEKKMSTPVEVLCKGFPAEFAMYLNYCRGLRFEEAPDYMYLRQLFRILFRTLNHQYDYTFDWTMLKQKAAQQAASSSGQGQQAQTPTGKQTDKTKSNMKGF

[11] = target: BUB1 (human) (UniProt O43683)
[12] = target: MAPK14 (human) (UniProt Q16539)
[13] = target: AURKA (human) (UniProt O14965)
[14] = target: WNK3 (human) (UniProt Q9BYP7)
Chain of WNK3 (human) (Q9BYP7 whole entry, looked up): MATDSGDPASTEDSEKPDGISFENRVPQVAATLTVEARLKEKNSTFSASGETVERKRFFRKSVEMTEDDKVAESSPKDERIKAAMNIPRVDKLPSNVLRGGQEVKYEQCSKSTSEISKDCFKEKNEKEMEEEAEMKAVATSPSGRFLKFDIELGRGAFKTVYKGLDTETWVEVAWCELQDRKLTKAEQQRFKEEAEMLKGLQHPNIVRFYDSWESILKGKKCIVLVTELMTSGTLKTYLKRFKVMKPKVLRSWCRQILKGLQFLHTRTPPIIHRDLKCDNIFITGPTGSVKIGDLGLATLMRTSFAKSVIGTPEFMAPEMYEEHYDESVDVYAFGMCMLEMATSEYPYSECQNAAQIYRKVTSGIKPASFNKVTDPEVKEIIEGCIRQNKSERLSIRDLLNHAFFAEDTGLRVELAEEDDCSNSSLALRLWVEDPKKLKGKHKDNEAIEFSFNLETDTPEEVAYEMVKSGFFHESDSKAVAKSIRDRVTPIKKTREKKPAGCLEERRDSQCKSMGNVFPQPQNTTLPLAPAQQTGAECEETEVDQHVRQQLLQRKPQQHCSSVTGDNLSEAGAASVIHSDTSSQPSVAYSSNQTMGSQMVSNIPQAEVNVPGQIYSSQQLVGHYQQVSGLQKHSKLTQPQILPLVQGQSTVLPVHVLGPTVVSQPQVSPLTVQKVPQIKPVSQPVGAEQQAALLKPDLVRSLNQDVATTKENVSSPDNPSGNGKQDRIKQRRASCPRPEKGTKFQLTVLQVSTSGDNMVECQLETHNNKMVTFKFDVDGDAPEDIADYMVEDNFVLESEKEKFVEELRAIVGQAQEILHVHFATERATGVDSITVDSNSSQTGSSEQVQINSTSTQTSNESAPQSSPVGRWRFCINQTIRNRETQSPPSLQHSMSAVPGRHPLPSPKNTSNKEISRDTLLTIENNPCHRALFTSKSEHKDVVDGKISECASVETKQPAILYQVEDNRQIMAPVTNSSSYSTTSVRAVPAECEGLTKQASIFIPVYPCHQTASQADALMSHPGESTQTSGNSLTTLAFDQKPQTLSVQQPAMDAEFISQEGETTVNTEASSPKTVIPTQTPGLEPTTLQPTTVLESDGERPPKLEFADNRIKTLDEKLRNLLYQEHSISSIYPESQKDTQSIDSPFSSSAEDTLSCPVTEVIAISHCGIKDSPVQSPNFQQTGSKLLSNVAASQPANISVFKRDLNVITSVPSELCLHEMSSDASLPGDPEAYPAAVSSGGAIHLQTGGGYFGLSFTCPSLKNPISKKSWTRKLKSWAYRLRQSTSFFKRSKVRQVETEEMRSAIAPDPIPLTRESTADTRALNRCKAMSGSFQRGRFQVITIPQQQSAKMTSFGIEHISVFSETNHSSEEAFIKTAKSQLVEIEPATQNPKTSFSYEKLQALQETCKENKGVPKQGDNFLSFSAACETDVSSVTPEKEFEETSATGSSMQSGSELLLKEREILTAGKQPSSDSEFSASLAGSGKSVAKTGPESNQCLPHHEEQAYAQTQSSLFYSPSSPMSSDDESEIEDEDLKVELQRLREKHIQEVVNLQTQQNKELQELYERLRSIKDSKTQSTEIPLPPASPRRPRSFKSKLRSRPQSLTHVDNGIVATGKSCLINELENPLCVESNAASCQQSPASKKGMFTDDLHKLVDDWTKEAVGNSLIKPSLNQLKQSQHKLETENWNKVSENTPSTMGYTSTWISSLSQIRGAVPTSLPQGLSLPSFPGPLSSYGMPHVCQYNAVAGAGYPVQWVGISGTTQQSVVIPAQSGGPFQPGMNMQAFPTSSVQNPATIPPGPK

[15] = target: AKT3 (human) (UniProt Q9Y243)
[16] = target: PRKX (human) (UniProt P51817)
[17] = target: BRAF (human) (UniProt P15056)
[18] = target: RIOK3 (human) (UniProt O14730)
[19] = target: PIM2 (human) (UniProt Q9P1W9)
[20] = target: CDKL3 (human) (UniProt Q8IVW4)
[21] = target: MAST1 (human) (UniProt Q9Y2H9)
[22] = target: SBK1 (human) (UniProt Q52WX2)
[23] = target: PIK3CD (human) (UniProt O00329)
[24] = target: SRPK3 (human) (UniProt Q9UPE1)
[25] = target: SIK1 (human) (UniProt P57059)
[26] = target: MAP4K2 (human) (UniProt Q12851)
[27] = target: EPHA6 (human) (UniProt Q9UF33)
[28] = target: NEK1 (human) (UniProt Q96PY6)
[29] = system: PIK3CA (human), P42336 [H1047L]
Chain of PIK3CA (human), P42336 [H1047L] (P42336 whole entry H1047L, looked up): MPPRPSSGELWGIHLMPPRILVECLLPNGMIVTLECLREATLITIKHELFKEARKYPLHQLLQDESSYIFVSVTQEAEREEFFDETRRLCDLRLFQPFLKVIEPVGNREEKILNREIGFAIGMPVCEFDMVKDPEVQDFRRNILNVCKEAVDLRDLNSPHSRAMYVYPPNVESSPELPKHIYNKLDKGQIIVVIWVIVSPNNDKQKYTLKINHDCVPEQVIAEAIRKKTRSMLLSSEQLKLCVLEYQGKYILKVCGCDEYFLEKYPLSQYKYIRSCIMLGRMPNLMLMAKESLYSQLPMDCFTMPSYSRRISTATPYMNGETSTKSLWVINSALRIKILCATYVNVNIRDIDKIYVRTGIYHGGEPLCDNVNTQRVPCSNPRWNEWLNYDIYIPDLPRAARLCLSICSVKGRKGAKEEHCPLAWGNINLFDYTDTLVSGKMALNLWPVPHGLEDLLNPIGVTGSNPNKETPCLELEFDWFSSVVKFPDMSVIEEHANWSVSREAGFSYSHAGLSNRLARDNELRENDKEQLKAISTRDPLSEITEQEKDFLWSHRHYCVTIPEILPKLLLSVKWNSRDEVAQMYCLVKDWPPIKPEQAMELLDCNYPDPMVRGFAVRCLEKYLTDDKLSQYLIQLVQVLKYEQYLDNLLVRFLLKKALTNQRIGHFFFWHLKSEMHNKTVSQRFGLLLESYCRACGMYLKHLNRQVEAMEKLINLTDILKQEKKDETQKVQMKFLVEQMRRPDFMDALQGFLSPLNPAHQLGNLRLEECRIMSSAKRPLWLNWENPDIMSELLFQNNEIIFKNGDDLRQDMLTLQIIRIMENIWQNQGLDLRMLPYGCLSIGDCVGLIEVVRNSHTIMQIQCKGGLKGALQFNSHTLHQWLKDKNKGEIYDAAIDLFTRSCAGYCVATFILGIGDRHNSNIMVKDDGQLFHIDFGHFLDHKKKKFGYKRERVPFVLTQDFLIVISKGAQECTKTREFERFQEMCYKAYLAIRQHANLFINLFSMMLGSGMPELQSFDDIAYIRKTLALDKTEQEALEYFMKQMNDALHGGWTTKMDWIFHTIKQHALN

[30] = target: ZAP70 (human) (UniProt P43403)
[31] = target: MAK (human) (UniProt P20794)
[32] = target: SGK1 (human) (UniProt O00141)
[33] = target: STK17B (human) (UniProt O94768)
[34] = target: ICK (human) (UniProt Q9UPZ9)
[35] = target: DDR1 (human) (UniProt Q08345)
[36] = target: NEK2 (human) (UniProt P51955)
[37] = target: GSG2 (human) (UniProt Q8TF76)
[38] = target: ERN1 (human) (UniProt O75460)
Chain of ERN1 (human) (O75460 whole entry, looked up): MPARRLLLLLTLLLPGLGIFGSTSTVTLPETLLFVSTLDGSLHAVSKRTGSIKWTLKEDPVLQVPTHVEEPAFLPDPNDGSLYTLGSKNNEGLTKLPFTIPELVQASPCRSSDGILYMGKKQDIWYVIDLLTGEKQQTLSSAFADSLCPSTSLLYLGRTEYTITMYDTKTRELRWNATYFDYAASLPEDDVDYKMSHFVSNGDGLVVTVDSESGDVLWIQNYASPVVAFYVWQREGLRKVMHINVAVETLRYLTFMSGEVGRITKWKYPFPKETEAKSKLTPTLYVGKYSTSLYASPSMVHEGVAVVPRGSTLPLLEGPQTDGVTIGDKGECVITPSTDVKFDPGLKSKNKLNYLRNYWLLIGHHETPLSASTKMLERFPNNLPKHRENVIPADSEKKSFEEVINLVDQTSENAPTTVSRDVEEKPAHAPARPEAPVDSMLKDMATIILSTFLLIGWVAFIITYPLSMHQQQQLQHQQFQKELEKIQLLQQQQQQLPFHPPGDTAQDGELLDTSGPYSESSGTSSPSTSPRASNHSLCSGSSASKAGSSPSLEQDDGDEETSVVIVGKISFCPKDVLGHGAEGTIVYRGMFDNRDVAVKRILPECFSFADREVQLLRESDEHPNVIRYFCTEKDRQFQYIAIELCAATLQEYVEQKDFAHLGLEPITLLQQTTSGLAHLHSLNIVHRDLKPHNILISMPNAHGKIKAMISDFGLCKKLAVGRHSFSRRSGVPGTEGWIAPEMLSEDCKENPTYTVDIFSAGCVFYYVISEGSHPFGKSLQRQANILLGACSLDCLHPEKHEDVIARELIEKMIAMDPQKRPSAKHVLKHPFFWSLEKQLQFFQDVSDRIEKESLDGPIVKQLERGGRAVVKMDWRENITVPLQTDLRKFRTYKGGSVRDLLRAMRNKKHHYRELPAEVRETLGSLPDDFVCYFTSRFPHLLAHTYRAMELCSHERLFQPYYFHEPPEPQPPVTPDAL

[39] = target: INSR (human) (UniProt P06213)
[40] = target: EPHA4 (human) (UniProt P54764)

Chain of PKN3 (M.tuberculosis) (Q6P5Z2 whole entry, looked up): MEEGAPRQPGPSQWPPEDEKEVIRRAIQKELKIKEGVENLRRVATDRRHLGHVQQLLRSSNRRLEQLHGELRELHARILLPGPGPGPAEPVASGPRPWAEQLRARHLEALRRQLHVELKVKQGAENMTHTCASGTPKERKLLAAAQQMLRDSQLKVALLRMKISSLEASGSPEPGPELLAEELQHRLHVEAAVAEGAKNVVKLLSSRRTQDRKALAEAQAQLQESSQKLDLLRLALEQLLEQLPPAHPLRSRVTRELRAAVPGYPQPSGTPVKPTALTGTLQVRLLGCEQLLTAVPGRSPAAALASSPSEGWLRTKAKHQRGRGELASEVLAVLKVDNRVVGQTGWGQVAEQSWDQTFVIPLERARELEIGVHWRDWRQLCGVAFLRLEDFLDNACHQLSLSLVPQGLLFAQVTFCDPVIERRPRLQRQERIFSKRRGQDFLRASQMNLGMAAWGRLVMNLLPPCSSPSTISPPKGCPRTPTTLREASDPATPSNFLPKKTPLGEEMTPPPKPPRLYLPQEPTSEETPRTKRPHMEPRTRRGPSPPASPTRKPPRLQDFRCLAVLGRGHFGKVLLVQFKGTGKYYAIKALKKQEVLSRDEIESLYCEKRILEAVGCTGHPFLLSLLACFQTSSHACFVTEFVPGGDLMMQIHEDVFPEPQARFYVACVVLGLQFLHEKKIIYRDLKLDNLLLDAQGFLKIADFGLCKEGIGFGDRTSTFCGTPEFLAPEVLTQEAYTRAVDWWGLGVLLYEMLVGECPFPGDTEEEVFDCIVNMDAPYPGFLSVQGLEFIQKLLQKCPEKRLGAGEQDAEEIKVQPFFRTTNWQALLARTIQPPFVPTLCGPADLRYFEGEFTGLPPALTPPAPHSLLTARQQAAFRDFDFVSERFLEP

CNC(=O)Nc1ccc(-c2nc(N3CC4CCC(C3)O4)c3cnn(C4CCC5(CC4)OCCO5)c3n2)cc1
kinase still bound, per cent of control [1]: 100% | kinase still bound, per cent of control [2]: 100% | kinase still bound, per cent of control [3]: 82% | kinase still bound, per cent of control [4]: 91% | kinase still bound, per cent of control [5]: 70% | kinase still bound, per cent of control [6]: 100% | kinase still bound, per cent of control [7]: 94% | kinase still bound, per cent of control [8]: 90% | kinase still bound, per cent of control [9]: 91% | kinase still bound, per cent of control [10]: 100% | kinase still bound, per cent of control [11]: 52% | kinase still bound, per cent of control [12]: 100% | kinase still bound, per cent of control [13]: 100% | kinase still bound, per cent of control [14]: 100% | kinase still bound, per cent of control [15]: 86% | kinase still bound, per cent of control [16]: 100% | kinase still bound, per cent of control [17]: 100% | kinase still bound, per cent of control [18]: 100% | kinase still bound, per cent of control [19]: 74% | kinase still bound, per cent of control [20]: 95% | kinase still bound, per cent of control [21]: 95% | kinase still bound, per cent of control [22]: 100% | kinase still bound, per cent of control [23]: 5.7% | kinase still bound, per cent of control [24]: 100% | kinase still bound, per cent of control [25]: 86% | kinase still bound, per cent of control [26]: 100% | kinase still bound, per cent of control [27]: 98% | kinase still bound, per cent of control [28]: 100% | kinase still bound, per cent of control [29]: 15% | kinase still bound, per cent of control [30]: 83% | kinase still bound, per cent of control [31]: 100% | kinase still bound, per cent of control [32]: 100% | kinase still bound, per cent of control [33]: 100% | kinase still bound, per cent of control [34]: 87% | kinase still bound, per cent of control [35]: 66% | kinase still bound, per cent of control [36]: 72% | kinase still bound, per cent of control [37]: 100% | kinase still bound, per cent of control [38]: 93% | kinase still bound, per cent of control [39]: 84% | kinase still bound, per cent of control [40]: 100%

O=c1[nH]c2ccccc2n1C1CCN(Cc2ccc(-c3nc4cc5[nH]cnc5cc4nc3-c3ccccc3)cc2)CC1
kinase still bound, per cent of control [1]: 100% | kinase still bound, per cent of control [2]: 100% | kinase still bound, per cent of control [3]: 70% | kinase still bound, per cent of control [4]: 100% | kinase still bound, per cent of control [5]: 81% | kinase still bound, per cent of control [6]: 67% | kinase still bound, per cent of control [7]: 78% | kinase still bound, per cent of control [8]: 84% | kinase still bound, per cent of control [9]: 98% | kinase still bound, per cent of control [10]: 50% | kinase still bound, per cent of control [11]: 64% | kinase still bound, per cent of control [12]: 88% | kinase still bound, per cent of control [13]: 68% | kinase still bound, per cent of control [14]: 95% | kinase still bound, per cent of control [15]: 100% | kinase still bound, per cent of control [16]: 100% | kinase still bound, per cent of control [17]: 87% | kinase still bound, per cent of control [18]: 64% | kinase still bound, per cent of control [19]: 91% | kinase still bound, per cent of control [20]: 100% | kinase still bound, per cent of control [21]: 100% | kinase still bound, per cent of control [22]: 92% | kinase still bound, per cent of control [23]: 51% | kinase still bound, per cent of control [24]: 87% | kinase still bound, per cent of control [25]: 100% | kinase still bound, per cent of control [26]: 71% | kinase still bound, per cent of control [27]: 98% | kinase still bound, per cent of control [28]: 100% | kinase still bound, per cent of control [29]: 69% | kinase still bound, per cent of control [30]: 99% | kinase still bound, per cent of control [31]: 100% | kinase still bound, per cent of control [32]: 71% | kinase still bound, per cent of control [33]: 89% | kinase still bound, per cent of control [34]: 91% | kinase still bound, per cent of control [35]: 86% | kinase still bound, per cent of control [36]: 100% | kinase still bound, per cent of control [37]: 100% | kinase still bound, per cent of control [38]: 66% | kinase still bound, per cent of control [39]: 64% | kinase still bound, per cent of control [40]: 100%
